Laboratory results published in patent publication US20190069552A1, “METHOD TO CONTROL PYRIMETHANIL TOLERANT FUNGI” (Janssen Pharmaceutica NV, priority 2016, published 2019).

Assays:
[1] = test system: Penicillium expansum PE110091 (pyrimethanil-tolerant); assay: Treatment of fruit (curative dip, Bio-apple Elstar); assay type: in vivo; settings: for % effect after 6 days (observed) / % effect after 9 days (observed): apple Elstar, curative
Method: untreated apples or pears (details below), inoculated with fungal pathogens by wounding the fruits with a contaminated pricker on two spots, and incubated at 20° C. and 96% relative humidity.
Curative: fruits are first infected with a pricker and treated by dipping four hours later.
After a suitable incubation period, the diameters of the infected spots are measured with a calliper. The average diameter is calculated for all spots in the same treatment (between 14 and 40 spots per treatment, see below). Percentage effect of the treatment is then calculated by comparing the average spot diameter with the average for untreated controls.
The effect of adding an alkane carboxylic acid of formula CH3—(CH2)n—COOH (wherein n is 4 to 7) to restore sensitivity of pyrimethanil-resistant or pyrimethanil-tolerant fungi to pyrimethanil was calculated using the Limpel synergy formula (Limpel, L. E. et al. (1962) “Weed control by dimethyl tetrachloroterephthalate alone and in certain combinations”, Proceedings of the N. E. Weed Control Conference 16: 48-53). When a is the % effect obtained by compound A alone at a given concentration and b is the % effect obtained by compound B alone at a given concentration, the expected effect e of the combination of both compounds at the same concentrations is:
Pyrimethanil was added to tap water as a 40% commercially available PENBOTEC 400SC formulation to obtain a concentration of 100 ppm pyrimethanil. The alkanoic acid was added to tap water to obtain a 2000 ppm solution, or the alkanoic acid was added to the pyrimethanil composition with a concentration of 2000 ppm.
Fruit: Bio-apple “Elstar”
Pathogen: Penicillium expansum PE110091 (pyrimethanil-tolerant)
Repeats: Two wounds per fruit, 15 fruits per treatment
Evaluations: 17 March (6 days), 20 March (9 days) Average rot diameter untreated: 6 days: 21.3 mm 9 days: 36.0 mm

[2] = test system: Penicillium expansum strain PE110014, pyrimethanil-resistant; assay: Poison plate assay on glucose agar, strain PE110014; assay type: cell-based
Method: (§1) • Name of component (I): pyrimethanil • Name of component (II): hexanoic acid (=CH3—(CH2)n—COOH wherein n is 4) • Test setup: to each well of a 24-well microtiter plate, 2 ml of Glucose Agar (GA: 10 g glucose, 1.5 g K2HPO4, 2 g KH2PO4, 1 g (NH4)2SO4, 0.5 g MgSO4 and 12.5 g agar in 1 litre deionised water) is added. The test compounds pyrimethanil as well as an alkane carboxylic acid (II) are dissolved in DMSO at the appropriate concentration and added to the liquid agar in a 5 μl droplet each. The nutrient medium is inoculated with the test fungi by adding 2.5 µl of a spore/mycelium suspension. The microwell plates are then incubated in the dark at 20° C. and 60% relative humidity. The growth of the fungi is evaluated after two weeks, when the growth diameter of untreated controls has reached 15 mm.
(§2) After a suitable incubation period, colony diameters on the agar are measured. Percentage growth (not % effect, see below) is then calculated for each treatment by comparing the colony diameter with the diameter for untreated controls (which is 15 mm).
(§3) The effect of adding an alkane carboxylic acid of formula CH3—(CH2)n—COOH (wherein n is 4 to 7) to restore sensitivity of pyrimethanil-resistant or pyrimethanil-tolerant fungi to pyrimethanil was calculated using the Colby synergy formula (Colby S. R., Weeds (1967), 15(1), 20-22).
(§4) When a is the % growth (not the % activity) still observed under treatment with compound A alone at a given concentration and b is the % growth still observed under treatment with compound B alone at a given concentration, the expected growth exp under treatment with the combination of both compounds at the same concentrations is:
(§5) When the observed growth of the test pathogens under the combination is less than the expected growth, there is synergy.

[3] = test system: Penicillium expansum strain PE110048, pyrimethanil-resistant; assay: Poison plate assay on glucose agar, strain PE110048; assay type: cell-based
Method: as §1, §2, §3, §4, §5

[4] = test system: Penicillium expansum strain PE110030, pyrimethanil-resistant; assay: Poison plate assay on glucose agar, strain PE110030; assay type: cell-based
Method: as §1, §2, §3, §4, §5

[5] = test system: Penicillium expansum strain PE110014; assay: Pyrimethanil sensitivity of strain PE110014; assay type: cell-based; settings: strain PE110014, pyrimethanil-resistant
[6] = test system: Penicillium expansum PE110091; assay: Pyrimethanil sensitivity of strain PE110091; assay type: cell-based; settings: strain PE110091, pyrimethanil-tolerant
[7] = test system: Penicillium expansum PE110101; assay: Pyrimethanil sensitivity of strain PE110101; assay type: cell-based; settings: strain PE110101, pyrimethanil-sensitive
[8] = test system: Penicillium expansum strain PE110030; assay: Pyrimethanil sensitivity of strain PE110030; assay type: cell-based; settings: strain PE110030, pyrimethanil-resistant
[9] = test system: Penicillium expansum strain PE110048; assay: Pyrimethanil sensitivity of strain PE110048; assay type: cell-based; settings: strain PE110048, pyrimethanil-resistant
[10] = hexanoic acid alone at 250, 500 and 750 ppm
[11] = pyrimethanil 100 ppm alone (PENBOTEC 400SC)
[12] = pyrimethanil 10 ppm alone, two weeks

CCCCCC(=O)O [hexanoic acid]
fungicidal effect (in words) ([1]; PE110091 on apple, hexanoic acid alone at 2000 ppm): little fungicidal effect | % effect after 6 days (observed) ([1]; hexanoic acid 2000 ppm alone): 15% | % effect after 9 days (observed) ([1]; hexanoic acid 2000 ppm alone): 6% | % growth (observed) ([2]; hexanoic acid 250 ppm alone): 100% | % growth (observed) ([2]; hexanoic acid 500 ppm alone): 100% | % growth (observed) ([2]; hexanoic acid 750 ppm alone): 100% | fungicidal effect (in words) [2, 10]: no fungicidal effect | % growth (observed) ([3]; hexanoic acid 250 ppm alone): 100% | % growth (observed) ([3]; hexanoic acid 500 ppm alone): 100% | % growth (observed) ([3]; hexanoic acid 750 ppm alone): 100% | fungicidal effect (in words) [3, 10]: no fungicidal effect | % growth (observed) ([4]; hexanoic acid 250 ppm alone): 100% | % growth (observed) ([4]; hexanoic acid 500 ppm alone): 100% | % growth (observed) ([4]; hexanoic acid 750 ppm alone): 100% | fungicidal effect (in words) [4, 10]: no fungicidal effect

Cc1cc(C)nc(Nc2ccccc2)n1 [pyrimethanil, 4,6-dimethyl-N-phenyl-2-pyrimidinamine]
% effect after 6 days (observed) [1, 11]: 19% | % effect after 9 days (observed) [1, 11]: 12% | % growth (observed) [2, 12]: 67% | EC50 [5]: 15.40 ppm | EC95 [5]: > 100 ppm | EC50 [6]: 5.01 ppm | EC95 [6]: 74.99 ppm | % growth (observed) [3, 12]: 53% | % growth (observed) [4, 12]: 80% | EC50 [7]: 0.29 ppm | EC95 [7]: 0.88 ppm | EC50 [8]: 16.38 ppm | EC95 [8]: > 100 ppm | EC50 [9]: 22.39 ppm | EC95 [9]: > 100 ppm
